Reference: patent US11440908B2, “Crystalline forms of dasatinib” (Johnson Matthey Public Limited Company, priority 2018, dated 2022)

Columns and labels:
Format in all cases: physicochemical
[1] = Retention of solid form after drying under vacuum; details: dried under vacuum at about 45° C. overnight (about 18-20 h)
Experimental: (§1) About 120 mg of dasatinib is dispensed in about 1 mL of ethyl formate and stirred at temperatures of about 15° C. or about 45° C. for about 24 h. The slurries that are obtained at either of two temperatures are filtered, to yield Form I of ethyl formate solvate of dasatinib.

[2] = Retention of solid form under high humidity conditions; details: about ≥95% relative humidity (RH) overnight (about 18-20 h), dried material
Experimental: as §1

[3] = Moisture uptake on exposure to 0-95% RH; details: exposed to 0-95% RH
[4] = Storage stability at controlled temperature/relative humidity

Cc1nc(Nc2ncc(C(=O)Nc3c(C)cccc3Cl)s2)cc(N2CCN(CCO)CC2)n1 [dasatinib]
solid form after drying under vacuum [1]: retains its form
solid form after exposure to high humidity [2]: retains its form
moisture uptake [3]: < 1%
stability on storage ([4]; 25° C./97% RH): stable up to 5 months
stability on storage ([4]; 40° C./75% RH): stable up to 5 months
